According to patent US20260007681A1, “INDOLE DERIVATIVES AS ESTROGEN RECEPTOR DEGRADERS” (REGENTS OF THE UNIVERSITY OF MICHIGAN, priority 2022, published 2026):

Key:
ER = ER (Homo sapiens (Human), UniProt P03372); test: In-cell western blot analysis of relative ER percentage (Compounds B1-B278); assay type: cell-based; settings: ER degradation, 16 hours, read-out: ICW DC50
Summary of the method: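 In-cell western: after 16 h compound exposure (0.5% DMSO final), fixed and permeabilized cells are probed with anti-ER plus anti-GAPDH and near-infrared secondaries. Relative ER percentage compares treated wells against untreated and DMSO wells taken as 100%; seeding 40,000 or 10,000 cells/well.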

[1] = Cell growth assay (WST-8) (Compounds B1-B278); assay type: cell-based; settings: 96 h; T47D cell line; WST-8, 4 days; read-out: Cell Growth Inhibition in T47D cell line IC50
Summary of the method: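 Read-out is WST-8 absorbance at 450 nm (2.5 h, 37° C) as a fraction of vehicle control, from three separate repeats. Compound exposure lasted 4 days, starting one day after plating 1500 cells/well.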

ER, sequence (P03372 whole entry): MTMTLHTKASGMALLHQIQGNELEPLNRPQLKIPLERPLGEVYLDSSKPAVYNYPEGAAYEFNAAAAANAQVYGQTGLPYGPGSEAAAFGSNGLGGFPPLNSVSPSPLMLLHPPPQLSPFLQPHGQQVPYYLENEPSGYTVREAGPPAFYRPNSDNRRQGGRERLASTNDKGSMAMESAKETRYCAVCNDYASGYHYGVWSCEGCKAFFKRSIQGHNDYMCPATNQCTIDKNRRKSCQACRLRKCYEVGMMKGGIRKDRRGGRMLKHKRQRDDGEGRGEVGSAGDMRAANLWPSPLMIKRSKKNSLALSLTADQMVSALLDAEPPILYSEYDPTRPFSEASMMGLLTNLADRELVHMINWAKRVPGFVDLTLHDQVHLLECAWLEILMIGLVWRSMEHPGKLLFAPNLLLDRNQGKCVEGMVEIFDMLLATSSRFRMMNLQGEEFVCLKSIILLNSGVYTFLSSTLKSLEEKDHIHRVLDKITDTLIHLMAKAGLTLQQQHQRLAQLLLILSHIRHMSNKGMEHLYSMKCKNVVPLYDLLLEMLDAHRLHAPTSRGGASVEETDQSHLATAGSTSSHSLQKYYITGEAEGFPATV

SMILES | DC50 (ER) | IC50 [1]
C[C@@H]1Cc2c([nH]c3ccccc23)[C@@H](c2ccc(N3CCC4(CC3)CC(CN3CCC5(CC3)COc3c5ccc5c3CN(C3CCC(=O)NC3=O)C5=O)CO4)cn2)N1CC(F)(F)F (stereo partly drawn) [Compound B145, 3-(1′-((8-(6-((1S,3R)-3-methyl-2-(2,2,2-trifluoroethyl)-2,3,4,9-tetrahydro-1H-pyrido[3,4-b]indol-1-yl)pyridin-3-yl)-1-oxa-8-azaspiro[4.5]decan-3-yl)methyl)-6-oxo-6,8-dihydro-2H,7H-spiro[furo[2,3-e]isoindole-3,4′-piperidin]-7-yl)piperidine-2,6-dionc] | < 10 nM | < 1 nM
C[C@@H]1Cc2c([nH]c3ccccc23)[C@@H](c2c(F)cc(N3CCC(CN4CCN5c6ccc7c(c6OC[C@H]5C4)CN(C4CCC(=O)NC4=O)C7=O)CC3)cc2F)N1CC(F)(F)CO (stereo partly drawn) [Compound B148, 3-((R)-7-((1-(4-((1R,3R)-2-(2,2-difluoro-3-hydroxypropyl)-3-methyl-2,3,4,9-tetrahydro-1H-pyrido[3,4-b]indol-1-yl)-3,5-difluorophenyl)piperidin-4-yl)methyl)-1-oxo-1,3,5,5a,6,7,8,9-octahydro-2H-pyrazino[1′,2′:4,5][1,4]oxazino[2,3-e]isoindol-2-yl)piperidine-2,6-dione] | > 100 nM | < 1 nM
C[C@@H]1Cc2c([nH]c3ccccc23)[C@@H](c2c(F)cc(N3CC[C@@H](CN4CCN5c6ccc7c(c6OC[C@H]5C4)CN(C4CCC(=O)NC4=O)C7=O)C3)cc2F)N1CC(F)(F)CO (stereo partly drawn) [Compound B149, 3-((R)-7-(((S)-1-(4-((1R,3R)-2-(2,2-difluoro-3-hydroxypropyl)-3-methyl-2,3,4,9-tetrahydro-1H-pyrido[3,4-b]indol-1-yl)-3,5-difluorophenyl)pyrrolidin-3-yl)methyl)-1-oxo-1,3,5,5a,6,7,8,9-octahydro-2H-pyrazino[1′,2′:4,5][1,4]oxazino[2,3-e]isoindol-2-yl)piperidine-2,6-dione] | > 100 nM | 1 to 10 nM
C[C@@H]1Cc2c([nH]c3ccccc23)[C@@H](c2c(F)cc(N3CCN(C(=O)CN4CCN5c6ccc7c(c6OC[C@H]5C4)CN(C4CCC(=O)NC4=O)C7=O)CC3)cc2F)N1CC(F)F (stereo partly drawn) [Compound B151, 3-((R)-7-(2-(4-(4-((1R,3R)-2-(2,2-difluoroethyl)-3-methyl-2,3,4,9-tetrahydro-1H-pyrido[3,4-b]indol-1-yl)-3,5-difluorophenyl)piperazin-1-yl)-2-oxoethyl)-1-oxo-1,3,5,5a,6,7,8,9-octahydro-2H-pyrazino[1′,2′:4,5][1,4]oxazino[2,3-e]isoindol-2-yl)piperidine-2,6-dione] | > 100 nM | < 1 nM
C[C@@H]1Cc2c([nH]c3ccccc23)[C@@H](c2cnc(N3CCC4(CC3)CC(N3CCN5c6ccc7c(c6OC[C@H]5C3)CN(C3CCC(=O)NC3=O)C7=O)C4)nc2)N1CC(F)F (stereo partly drawn) [Compound B155, 3-((R)-7-(7-(5-((1R,3R)-2-(2,2-difluoroethyl)-3-methyl-2,3,4,9-tetrahydro-1H-pyrido[3,4-b]indol-1-yl)pyrimidin-2-yl)-7-azaspiro[3.5]nonan-2-yl)-1-oxo-1,3,5,5a,6,7,8,9-octahydro-2H-pyrazino[1′,2′:4,5][1,4]oxazino[2,3-e]isoindol-2-yl)piperidine-2,6-dione] | > 100 nM | 1 to 10 nM
C[C@@H]1Cc2c([nH]c3ccccc23)[C@@H](c2cnc(N3CC4(CCC(N5CCN6c7ccc8c(c7OC[C@H]6C5)CN(C5CCC(=O)NC5=O)C8=O)CC4)C3)nc2)N1CC(F)F (stereo partly drawn) [Compound B156, 3-((R)-7-(2-(5-((1R,3R)-2-(2,2-difluoroethyl)-3-methyl-2,3,4,9-tetrahydro-1H-pyrido[3,4-b]indol-1-yl)pyrimidin-2-yl)-2-azaspiro[3.5]nonan-7-yl)-1-oxo-1,3,5,5a,6,7,8,9-octahydro-2H-pyrazino[1′,2′:4,5][1,4]oxazino[2,3-e]isoindol-2-yl)piperidine-2,6-dione] | > 100 nM | > 10 nM
C[C@@H]1Cc2c([nH]c3ccccc23)[C@@H](c2cnc(N3CCC4(CC(CN5CCN6c7ccc8c(c7OC[C@H]6C5)CN(C5CCC(=O)NC5=O)C8=O)C4)C3)nc2)N1CC(F)F (stereo partly drawn) [Compound B157, 3-((R)-7-((6-(5-((1R,3R)-2-(2,2-difluoroethyl)-3-methyl-2,3,4,9-tetrahydro-1H-pyrido[3,4-b]indol-1-yl)pyrimidin-2-yl)-6-azaspiro[3.4]octan-2-yl)methyl)-1-oxo-1,3,5,5a,6,7,8,9-octahydro-2H-pyrazino[1′,2′:4,5][1,4]oxazino[2,3-e]isoindol-2-yl)piperidine-2,6-dione] | > 100 nM | 1 to 10 nM
C[C@@H]1Cc2c([nH]c3ccccc23)[C@@H](c2cnc(N3CC4(CCC(N5CCN6c7ccc8c(c7OC[C@H]6C5)CN(C5CCC(=O)NC5=O)C8=O)CC4)C3)nc2)N1CC(F)(F)CO (stereo partly drawn) [Compound B158, 3-((R)-7-(2-(5-((1R,3R)-2-(2,2-difluoro-3-hydroxypropyl)-3-methyl-2,3,4,9-tetrahydro-1H-pyrido[3,4-b]indol-1-yl)pyrimidin-2-yl)-2-azaspiro[3.5]nonan-7-yl)-1-oxo-1,3,5,5a,6,7,8,9-octahydro-2H-pyrazino[1′,2′:4,5][1,4]oxazino[2,3-e]isoindol-2-yl)piperidine-2,6-dione] | > 100 nM | < 1 nM
C[C@@H]1Cc2c([nH]c3ccccc23)[C@@H](c2cnc(N3CCC(CCN4CCN5c6ccc7c(c6OC[C@H]5C4)CN(C4CCC(=O)NC4=O)C7=O)CC3)nc2)N1CC(F)(F)CO (stereo partly drawn) [Compound B159, 3-((R)-7-(2-(1-(5-((1R,3R)-2-(2,2-difluoro-3-hydroxypropyl)-3-methyl-2,3,4,9-tetrahydro-1H-pyrido[3,4-b]indol-1-yl)pyrimidin-2-yl)piperidin-4-yl)ethyl)-1-oxo-1,3,5,5a,6,7,8,9-octahydro-2H-pyrazino[1′,2′:4,5][1,4]oxazino[2,3-e]isoindol-2-yl)piperidine-2,6-dione] | > 100 nM | > 10 nM

Second part, led by results:

DC50 (ER) | SMILES | IC50 [1]
10 to 100 nM | C[C@@H]1Cc2c([nH]c3ccccc23)[C@@H](c2ccc(N3CCC4(CC3)CC(CN3CCN5c6ccc7c(c6OC[C@H]5C3)CN([C@H]3CCC(=O)NC3=O)C7=O)CO4)cn2)N1CC(F)(F)F (stereo partly drawn) [Compound B146, (3S)-3-((5aR)-7-((8-(6-((1S,3R)-3-methyl-2-(2,2,2-trifluoroethyl)-2,3,4,9-tetrahydro-1H-pyrido[3,4-b]indol-1-yl)pyridin-3-yl)-1-oxa-8-azaspiro[4.5]decan-3-yl)methyl)-1-oxo-1,3,5,5a,6,7,8,9-octahydro-2H-pyrazino[1′,2′:4,5][1,4]oxazino[2,3-e]isoindol-2-yl)piperidine-2,6-dione] | 1 to 10 nM
10 to 100 nM | C[C@@H]1Cc2c([nH]c3ccccc23)[C@@H](c2ccc(N3CCC4(CC3)CC(CN3CCN5c6cc7c(cc6OC[C@@H]5C3)C(=O)N(C3CCC(=O)NC3=O)C7)CO4)cn2)N1CC(F)(F)F (stereo partly drawn) [Compound B147, 3-((4aS)-3-((8-(6-((1S,3R)-3-methyl-2-(2,2,2-trifluoroethyl)-2,3,4,9-tetrahydro-1H-pyrido[3,4-b]indol-1-yl)pyridin-3-yl)-1-oxa-8-azaspiro[4.5]dccan-3-yl)methyl)-8-oxo-1,2,3,4,4a,5,8,10-octahydro-9H-pyrazino[1′,2′:4,5][1,4]oxazino[2,3-f]isoindol-9-yl)piperidine-2,6-dione] | 1 to 10 nM
10 to 100 nM | C[C@@H]1Cc2c([nH]c3ccccc23)[C@@H](c2c(F)cc(N3CC[C@H](CN4CCN5c6ccc7c(c6OC[C@H]5C4)CN(C4CCC(=O)NC4=O)C7=O)C3)cc2F)N1CC(F)(F)CO (stereo partly drawn) [Compound B150, 3-((R)-7-(((R)-1-(4-((1R,3R)-2-(2,2-difluoro-3-hydroxypropyl)-3-methyl-2,3,4,9-tetrahydro-1H-pyrido[3,4-b]indol-1-yl)-3,5-difluorophenyl)pyrrolidin-3-yl)methyl)-1-oxo-1,3,5,5a,6,7,8,9-octahydro-2H-pyrazino[1′,2′:4,5][1,4]oxazino[2,3-e]isoindol-2-yl)piperidine-2,6-dione] | 1 to 10 nM
10 to 100 nM | C[C@@H]1Cc2c([nH]c3ccccc23)[C@@H](c2cnc(N3CCC4(CC3)CC(CN3CCN5c6ccc7c(c6OC[C@H]5C3)CN(C3CCC(=O)NC3=O)C7=O)C4)nc2)N1CC(F)(F)CO (stereo partly drawn) [Compound B153, 3-((R)-7-((7-(5-((1R,3R)-2-(2,2-difluoro-3-hydroxypropyl)-3-methyl-2,3,4,9-tetrahydro-1H-pyrido[3,4-b]indol-1-yl)pyrimidin-2-yl)-7-azaspiro[3.5]nonan-2-yl)methyl)-1-oxo-1,3,5,5a,6,7,8,9-octahydro-2H-pyrazino[1′,2′:4,5][1,4]oxazino[2,3-e]isoindol-2-yl)piperidine-2,6-dione] | 1 to 10 nM
10 to 100 nM | C[C@@H]1Cc2c([nH]c3ccccc23)[C@@H](c2cnc(N3CC4(CCC(CN5CCN6c7ccc8c(c7OC[C@H]6C5)CN(C5CCC(=O)NC5=O)C8=O)CC4)C3)nc2)N1CC(F)(F)CO (stereo partly drawn) [Compound B154, 3-((R)-7-((2-(5-((1R,3R)-2-(2,2-difluoro-3-hydroxypropyl)-3-methyl-2,3,4,9-tetrahydro-1H-pyrido[3,4-b]indol-1-yl)pyrimidin-2-yl)-2-azaspiro[3.5]nonan-7-yl)methyl)-1-oxo-1,3,5,5a,6,7,8,9-octahydro-2H-pyrazino[1′,2′:4,5][1,4]oxazino[2,3-e]isoindol-2-yl)piperidine-2,6-dione] | 1 to 10 nM
